Reference: ChEMBL document CHEMBL4818987, “Recent advances of podophyllotoxin/epipodophyllotoxin hybrids in anticancer activity, mode of action, and structure-activity relationship: An update (2010-2020)” (Eur J Med Chem, 2020)

Tests used:
K562 [1] = test: Cytotoxicity against human K562 cells incubated for 72 hrs by CCK8 assay; assay type: functional, cell-based; details: K562, 72 h
K562/Adr [2] = test: Cytotoxicity against human K562/ADR cells incubated for 72 hrs by CCK8 assay; assay type: functional, cell-based
[3] = Resistance index, ratio of IC50 for human K562/ADR cells to IC50 for human K562 cells; assay type: functional
HepG2 [4] = test: Antiproliferative activity against human HepG2 cells incubated for 3 days by MTT assay; assay type: functional, cell-based; details: HepG2, 72 h
HCT-116 = test: Antiproliferative activity against human HCT116 cells incubated for 3 days by MTT assay; assay type: functional, cell-based; details: HCT-116, 72 h
A549 [5] = test: Antiproliferative activity against human A549 cells incubated for 3 days by MTT assay; assay type: functional, cell-based; details: A549, 72 h
A549 [6] = test: Antiproliferative activity against human A549 cells incubated for 24 hrs by MTT assay; assay type: functional, cell-based; details: A549, 24 h
HeLa [7] = test: Antiproliferative activity against human HeLa cells incubated for 24 hrs by MTT assay; assay type: functional, cell-based
Calu-1 = test: Antiproliferative activity against human Calu-1 cells incubated for 24 hrs by MTT assay; assay type: functional, cell-based; details: Calu-1, 24 h
K562 [8] = test: Potency index, ratio of doxorubicin IC50 to compound IC50 for human K562 cells; assay type: functional
K562/Adr [9] = test: Potency index, ratio of doxorubicin IC50 to compound IC50 for human K562/ADR cells; assay type: functional
A549 [10] = test: Antiproliferative activity against human A549 cells incubated for 72 hrs by MTT assay; assay type: functional, cell-based; details: A549, 72 h
MCF7 = test: Antiproliferative activity against human MCF7 cells incubated for 48 hrs by MTT assay; assay type: functional, cell-based; details: MCF7, 48 h
SW480 = test: Antiproliferative activity against human SW480 cells incubated for 48 hrs by MTT assay; assay type: functional, cell-based; details: SW480, 48 h
SMMC-7721 = test: Antiproliferative activity against human SMMC-7721 cells incubated for 48 hrs by MTT assay; assay type: functional, cell-based; details: SMMC-7721, 48 h
HL-60 = test: Antiproliferative activity against human HL-60 cells incubated for 48 hrs by MTT assay; assay type: functional, cell-based; details: HL-60, 48 h
HeLa [11] = test: Antiproliferative activity against human HeLa cells incubated for 48 hrs by MTT assay; assay type: functional, cell-based
A549 [12] = test: Antiproliferative activity against human A549 cells incubated for 48 hrs by MTT assay; assay type: functional, cell-based; details: A549, 48 h
HepG2 [13] = test: Antiproliferative activity against human HepG2 cells incubated for 48 hrs by MTT assay; assay type: functional, cell-based; details: HepG2, 48 h

Row | Structure (SMILES) | IC50 (HepG2 [4]) [nM] | IC50 (HCT-116) [nM] | IC50 (A549 [5]) [nM] | IC50 (A549 [6]) [nM] | IC50 (HeLa [7]) [nM] | IC50 (Calu-1) [nM] | other results
1 | COc1cc([C@@H]2c3cc4c(cc3[C@H](OC(=O)/C=C/c3ccc(C)cc3)[C@H]3COC(=O)[C@H]23)OCO4)cc(OC)c1OC | – | – | – | – | – | – | IC50 (K562 [1]): 11 nM; IC50 (K562/Adr [2]): 11 nM; Ratio IC50 [3]: 1.1
2 | COc1cc([C@@H]2c3cc4c(cc3[C@@H](N)[C@H]3COC(=O)[C@H]23)OCO4)cc(OC)c1OC [4BETA-NH2-PODOPHYLLOTOXIN] | 100 | 100 | 100 | – | – | – | –
3 | COc1ccc(/C=C/C(=O)O[C@H]2c3cc4c(cc3[C@@H](c3cc(OC)c(OC)c(OC)c3)[C@H]3C(=O)OC[C@@H]32)OCO4)cc1 | – | – | – | – | – | – | IC50 (K562 [1]): 11 nM; IC50 (K562/Adr [2]): 11 nM; Ratio IC50 [3]: 1.1
4 | COc1cc([C@@H]2c3cc4c(cc3[C@H](OC(=O)CCCCC3CCSC(c5ccccc5C)S3)[C@H]3COC(=O)[C@H]23)OCO4)cc(OC)c1OC (stereo partly specified) | – | – | – | 2680 | 2680 | 2680 | –
5 | COc1cccc(/C=C/C(=O)O[C@H]2c3cc4c(cc3[C@@H](c3cc(OC)c(OC)c(OC)c3)[C@H]3C(=O)OC[C@@H]32)OCO4)c1 | – | – | – | – | – | – | IC50 (K562 [1]): 11 nM; IC50 (K562/Adr [2]): 11 nM; Ratio IC50 [3]: 1.1
6 | COc1cc([C@@H]2c3cc4c(cc3[C@H](OC(=O)CCCCC3CCSC(c5cccc(Cl)c5Cl)S3)[C@H]3COC(=O)[C@H]23)OCO4)cc(OC)c1OC (stereo partly specified) | – | – | – | 2680 | 2680 | 2680 | –
7 | COc1cc([C@@H]2c3cc4c(cc3[C@H](OC(=O)/C=C/c3ccc(F)cc3)[C@H]3COC(=O)[C@H]23)OCO4)cc(OC)c1OC | – | – | – | – | – | – | IC50 (K562 [1]): 11 nM; IC50 (K562/Adr [2]): 11 nM; Ratio IC50 [3]: 1.1
8 | COc1cc([C@@H]2c3cc4c(cc3[C@@H](NC(=S)NC(=O)c3ccccc3C)[C@H]3COC(=O)[C@H]23)OCO4)cc(OC)c1OC | 100 | 100 | 100 | – | – | – | –
9 | COc1cc([C@@H]2c3cc4c(cc3[C@@H](NC(=S)NC(=O)c3ccc(F)cc3)[C@H]3COC(=O)[C@H]23)OCO4)cc(OC)c1OC | 100 | 100 | 100 | – | – | – | –
10 | COc1cc([C@@H]2c3cc4c(cc3[C@@H](OC(=O)/C=C/c3ccccc3)[C@H]3COC(=O)[C@H]23)OCO4)cc(OC)c1OC | – | – | – | – | – | – | IC50 (K562 [1]): 11 nM; IC50 (K562/Adr [2]): 11 nM; Ratio IC50 [3]: 1.1; Ratio IC50 (K562 [8]): 2.2; Ratio IC50 (K562/Adr [9]): 2.2
11 | COc1cc([C@@H]2c3cc4c(cc3[C@H](OC(=O)CCCCC3CCSC(c5ccccc5Cl)S3)[C@H]3COC(=O)[C@H]23)OCO4)cc(OC)c1OC (stereo partly specified) | – | – | – | 2680 | 2680 | 2680 | –
12 | COc1cc([C@@H]2c3cc4c(cc3[C@@H](NC(=S)NC(=O)c3cccc(C)c3)[C@H]3COC(=O)[C@H]23)OCO4)cc(OC)c1OC | 100 | 100 | 100 | – | – | – | –
13 | COc1cc([C@@H]2c3cc4c(cc3[C@H](OC(=O)/C=C/c3ccc(Cl)cc3)[C@H]3COC(=O)[C@H]23)OCO4)cc(OC)c1OC | – | – | – | – | – | – | IC50 (K562 [1]): 11 nM; IC50 (K562/Adr [2]): 11 nM; Ratio IC50 [3]: 1.1
14 | COc1cc([C@@H]2c3cc4c(cc3[C@H](OC(=O)CCCCC3CCSC(c5ccccc5)S3)[C@H]3COC(=O)[C@H]23)OCO4)cc(OC)c1OC (stereo partly specified) | – | – | – | 2680 | 2680 | 2680 | –
15 | COc1cc([C@@H]2c3cc4c(cc3[C@H](OC(=O)CCCCC3CCSC(c5ccc(C(C)C)cc5)S3)[C@H]3COC(=O)[C@H]23)OCO4)cc(OC)c1OC (stereo partly specified) | – | – | – | 2680 | 2680 | 2680 | –
16 | CCCC(=O)OC[C@H]1O[C@H](OCc2cn([C@@H]3c4cc5c(cc4[C@@H](c4cc(OC)c(O)c(OC)c4)[C@H]4C(=O)OC[C@@H]43)OCO5)nn2)[C@H](OC(=O)CCC)[C@@H](OC(=O)CCC)[C@H]1OC(=O)CCC | – | – | – | – | – | – | IC50 (A549 [10]): 490 nM; IC50 (MCF7): 490 nM; IC50 (SW480): 490 nM; IC50 (SMMC-7721): 490 nM; IC50 (HL-60): 490 nM

Row | Structure (SMILES) | IC50 (HepG2 [4]) [nM] | IC50 (HCT-116) [nM] | IC50 (A549 [5]) [nM] | IC50 (A549 [6]) [nM] | IC50 (HeLa [7]) [nM] | IC50 (Calu-1) [nM] | other results
17 | COc1cc([C@@H]2c3cc4c(cc3[C@H](OC(=O)CCCCC3CCSC(c5ccc(Br)cc5)S3)[C@H]3COC(=O)[C@H]23)OCO4)cc(OC)c1OC (stereo partly specified) | – | – | – | 2680 | 2680 | 2680 | –
18 | COc1cc([C@@H]2c3cc4c(cc3[C@H](OC(=O)CCCCC3CCSC(c5ccc(Cl)cc5)S3)[C@H]3COC(=O)[C@H]23)OCO4)cc(OC)c1OC (stereo partly specified) | – | – | – | 2680 | 2680 | 2680 | –
19 | COc1cc([C@@H]2c3cc4c(cc3[C@@H](NC(=S)NC(=O)c3cccc(Cl)c3)[C@H]3COC(=O)[C@H]23)OCO4)cc(OC)c1OC | 100 | 100 | 100 | – | – | – | –
20 | COc1cc([C@@H]2c3cc4c(cc3[C@@H](NC(=S)NC(=O)c3ccccc3Cl)[C@H]3COC(=O)[C@H]23)OCO4)cc(OC)c1OC | 100 | 100 | 100 | – | – | – | –
21 | COc1cc([C@@H]2c3cc4c(cc3[C@@H](NC(=S)NC(=O)c3ccccc3I)[C@H]3COC(=O)[C@H]23)OCO4)cc(OC)c1OC | 100 | 100 | 100 | – | – | – | –
22 | COc1cc([C@@H]2c3cc4c(cc3[C@H](OC(=O)/C=C/c3ccco3)[C@H]3COC(=O)[C@H]23)OCO4)cc(OC)c1OC | – | – | – | – | – | – | IC50 (K562 [1]): 11 nM; IC50 (K562/Adr [2]): 11 nM; Ratio IC50 [3]: 1.1
23 | COc1cc([C@@H]2c3cc4c(cc3[C@@H](NC(=S)NC(=O)c3cccc5ccccc35)[C@H]3COC(=O)[C@H]23)OCO4)cc(OC)c1OC | 100 | 100 | 100 | – | – | – | –
24 | COc1ccc(C2SCCC(CCCCC(=O)O[C@H]3c4cc5c(cc4[C@@H](c4cc(OC)c(OC)c(OC)c4)[C@H]4C(=O)OC[C@@H]43)OCO5)S2)cc1O (stereo partly specified) | – | – | – | 2680 | 2680 | 2680 | –
25 | COc1ccc(C2SCCC(CCCCC(=O)O[C@H]3c4cc5c(cc4[C@@H](c4cc(OC)c(OC)c(OC)c4)[C@H]4C(=O)OC[C@@H]43)OCO5)S2)cc1OC (stereo partly specified) | – | – | – | 2680 | 2680 | 2680 | –
26 | COc1cc([C@@H]2c3cc4c(cc3[C@@H](NC(=S)NC(=O)c3ccc(Cl)cc3)[C@H]3COC(=O)[C@H]23)OCO4)cc(OC)c1OC | 100 | 100 | 100 | – | – | – | –
27 | COc1cc([C@@H]2c3cc4c(cc3[C@H](OC(=O)/C=C/c3cccc(Cl)c3)[C@H]3COC(=O)[C@H]23)OCO4)cc(OC)c1OC | – | – | – | – | – | – | IC50 (K562 [1]): 11 nM; IC50 (K562/Adr [2]): 11 nM; Ratio IC50 [3]: 1.1
28 | COc1cc([C@@H]2c3cc4c(cc3[C@H](OC(=O)CCCCC3CCSC(c5ccc(Cl)cc5Cl)S3)[C@H]3COC(=O)[C@H]23)OCO4)cc(OC)c1OC (stereo partly specified) | – | – | – | 2680 | 2680 | 2680 | –
29 | COc1cc([C@@H]2c3cc4c(cc3[C@@H](O[C@H]3CC[C@@H](O)[C@@H](C(C)C)O3)[C@H]3COC(=O)[C@H]23)OCO4)cc(OC)c1O | – | – | – | – | – | – | IC50 (HeLa [11]): 41.6 nM; IC50 (A549 [12]): 41.6 nM; IC50 (MCF7): 41.6 nM; IC50 (HepG2 [13]): 41.6 nM
30 | COc1cc([C@@H]2c3cc4c(cc3[C@@H](NC(=S)NC(=O)c3cccs3)[C@H]3COC(=O)[C@H]23)OCO4)cc(OC)c1OC | 100 | 100 | 100 | – | – | – | –
31 | COc1ccccc1C1SCCC(CCCCC(=O)O[C@H]2c3cc4c(cc3[C@@H](c3cc(OC)c(OC)c(OC)c3)[C@H]3C(=O)OC[C@@H]32)OCO4)S1 (stereo partly specified) | – | – | – | 2680 | 2680 | 2680 | –
32 | COc1cc([C@@H]2c3cc4c(cc3[C@@H](NC(=S)NC(=O)c3ccccc3Br)[C@H]3COC(=O)[C@H]23)OCO4)cc(OC)c1OC | 100 | 100 | 100 | – | – | – | –
